Here are results for 5 compounds from US20220264878A1, “HERBICIDAL COMPOSITION CONTAINING R-TYPE PYRIDYLOXY CARBOXYLIC ACID DERIVATIVE AND USE THEREOF” (Qingdao Kingagroot Chemical Compound Co., Ltd., priority 2019, published 2022).

Read-outs that look alike come from different tables or passages of the source.

Common to all, as to experiment: Post-emergence foliage spray, pot culture, fresh weight inhibition (Tables 1-48, 51-98, 101-148; 24 days)
Assay type in all cases: in vivo

One assay concerns Echinochloa caudate. Conditions: Echinochloa, 576 h, read-out: Control effect (%) of B applied alone in corresponding dose. Here is the method:
(§1) The above weeds were cultivated by a pot culture method. […] Full and uniform weed seeds were selected, soaked in warm water at 25° C. for 6 hours, and germinated in a 28° C. biochemical incubator (darkness). The weed seeds that had just germinatedwere evenly placed on the surface of the soil and then covered with 0.5-1 cm soil according to the sizes of seeds.
(§2) The technical materials were all dissolved in acetone, and diluted with an aqueous solution containing 0.1% emulsifier Tween-80. The dilution is performed as required.
(§3) A ratio of the active ingredient A to the active ingredient B and amounts thereof in each group depends on the characteristics and toxicity of the two agents, as well as the main application purpose of a corresponding formulation. Based on the pre-tests in this study, the dosage of the active ingredient A and B applied alone and in combination were shown in the tables. Water containing the solvent and emulsifier same with the above groups but free of the agents was used as a blank control.
(§4) In the stage of weeds with 3˜4 leaves, the weeds were thinned out to maintain 15 weeds per pot and 45 weeds for each treatment, then continued to be cultured to 5˜6 leaves stage of grassy weeds, 6˜7 leaves stage of broadleaf weeds, and treated.
(§5) The well-cultured weeds were evenly placed on a platform with an area of 0.5 m^2, and a solution of agents was sprayed on the stems and leaves thereof by the 3WP-2000-type walking spray tower at a dosage of 450 kg/ha and at a spray pressure of 0.3 MPa. After all the solution was sprayed, the valve was closed. After 30 seconds, the door of the spray tower was opened, and the nutritional bowl was taken out. Then the valve was opened, and the spray tube was cleaned by spraying 50 ml of water.
(§6) A pot-culture method was employed. For the cultivation of weeds, please refer to the Section 1.1), and “Pesticide guidelines for laboratory bioactivity tests—herbicides”. As to a method for applying agents, please refer to the section 2.3.2), that is, a foliage treatment was employed. After the treatment, the weeds were routinely cultured in a greenhouse.
(§7) A method for investigating absolute number was employed, wherein whole seedlings of survival weeds were cut off with a blade along the soil surface, and the fresh weight of the weeds was weighed with an analytical balance. For dead weeds, the fresh weight thereof was zero.
(§8) Wherein, in the formula, X represented the fresh weight inhibition rate of the active ingredient A in a dosage of P, and Y represented the fresh weight inhibition rate of the active ingredient B in a dosage of Q.

Assay [1] relates to Echinochloa crusgalli var. zelayensis. Conditions: Echinochloa crus-galli, foliar, 576 h, foliage spray, 24 days, read-out: Control effect (%) of B applied alone in corresponding dose; for pest or weed control at 3.75 g/ha: B 3.75 g a.i./ha; for pest or weed control at 7.5 g/ha: B 7.5 g a.i./ha; for pest or weed control at 15 g/ha: B 15 g a.i./ha; for pest or weed control at 30 g/ha: B 30 g a.i./ha. Here is the method: as §1, §2, §3, §4, §5, §6, §7, §8

The subject of another assay is Echinochloa oryzoides. The conditions noted are these: Echinochloa oryzoides, 576 h, read-out: Control effect (%) of B applied alone in corresponding dose; for pest or weed control at 3.75 g/ha: 3.75 g a.i./ha; for pest or weed control at 7.5 g/ha: 7.5 g a.i./ha; for pest or weed control at 15 g/ha: 15 g a.i./ha; for pest or weed control at 30 g/ha: 30 g a.i./ha. How it is done:
as §1, §2, §3, §4, §5, §6, §7, §8

`COc1cc(OC)nc(Oc2cccc(Oc3nc(OC)cc(OC)n3)c2C(=O)O)n1` [bispyribac-sodium]: the pest or weed control at 1.875 g/ha in the assay on Echinochloa caudate (bispyribac-sodium 1.875 g a.i./ha) worked out at 5.5%; in assay [1] (B 1.875 g a.i./ha) it was 5.3%; in the assay with Echinochloa oryzoides (Table 102, 1.875 g a.i./ha), 4.7%. The results for the pest or weed control at 3.75 g/ha (in the assay with Echinochloa caudate (bispyribac-sodium 3.75 g a.i./ha); in assay [1]; in the assay with Echinochloa oryzoides (Table 102)) were 16%, 17.4% and 18.2%, respectively. Moreover, the pest or weed control at 7.5 g/ha with Echinochloa caudate (bispyribac-sodium 7.5 g a.i./ha) is 44.9%; in assay [1], 43.4%; with Echinochloa oryzoides (Table 102) it was 44.1%. Besides, the pest or weed control at 15 g/ha turned out to be 62.1% in the assay on Echinochloa caudate (bispyribac-sodium 15 g a.i./ha), 62.9% in assay [1] and 62% in the assay with Echinochloa oryzoides (Table 102).
`COCc1cnc(C2=NC(C)(C(C)C)C(=O)N2)c(C(=O)O)c1` (stereo not drawn) [imazamox]: the pest or weed control at 3.75 g/ha in the assay on Echinochloa caudate (imazamox 3.75 g a.i./ha) is 7.6%; in assay [1] it was 6.9%; in the assay with Echinochloa oryzoides (Table 109) it was 4%. For the same compound, the figures for the pest or weed control at 7.5 g/ha (in the assay with Echinochloa caudate (imazamox 7.5 g a.i./ha); in assay [1]; with Echinochloa oryzoides (Table 109)) were 16.5%, 14.2% and 12.6%, respectively. Besides, the pest or weed control at 15 g/ha is 24.8% in the assay on Echinochloa caudate (imazamox 15 g a.i./ha), 25.1% in assay [1] and 27.6% in the assay on Echinochloa oryzoides (Table 109). The values for the pest or weed control at 30 g/ha (in the assay with Echinochloa caudate (imazamox 30 g a.i./ha); in assay [1]; with Echinochloa oryzoides (Table 109)) were 53.8%, 54.8% and 54.4%, respectively.
As for `Cc1cnc(C2=NC(=O)C(C)(C(C)C)N2)c(C(=O)O)c1` (stereo not drawn) [imazapic], the pest or weed control at 9.375 g/ha in the assay with Echinochloa caudate (imazapic 9.375 g a.i./ha) came to 6.8%; in assay [1] (B 9.375 g a.i./ha), 1.2%; with Echinochloa oryzoides (Table 108, 9.375 g a.i./ha) it was 4%. Also, the pest or weed control at 18.75 g/ha turned out to be 21.5% with Echinochloa caudate (imazapic 18.75 g a.i./ha); 18.6% in assay [1] (B 18.75 g a.i./ha); 21.3% with Echinochloa oryzoides (Table 108, 18.75 g a.i./ha). Further, the pest or weed control at 37.5 g/ha with Echinochloa caudate (imazapic 37.5 g a.i./ha) is 28.6%; in assay [1] (B 37.5 g a.i./ha) it was 26.9%; in the assay on Echinochloa oryzoides (Table 108, 37.5 g a.i./ha), 30.4%. In addition, the pest or weed control at 75 g/ha with Echinochloa caudate (imazapic 75 g a.i./ha) was 55.6%; in assay [1] (B 75 g a.i./ha), 57%; in the assay on Echinochloa oryzoides (Table 108, 75 g a.i./ha) it was 59.7%.
As to `CCc1cnc(C2=NC(C)(C(C)C)C(=O)N2)c(C(=O)O)c1` (stereo not drawn) [imazethapyr], the pest or weed control at 7.5 g/ha came out at 4.2% with Echinochloa caudate (imazethapyr 7.5 g a.i./ha), 3.2% in assay [1] and 6.7% with Echinochloa oryzoides (Table 107). Also, the figures for the pest or weed control at 15 g/ha (with Echinochloa caudate (imazethapyr 15 g a.i./ha); in assay [1]; with Echinochloa oryzoides (Table 107)) were 18.1%, 19.8% and 17.8%, respectively. The pest or weed control at 30 g/ha in the assay on Echinochloa caudate (imazethapyr 30 g a.i./ha) was 34.8%; in assay [1] it was 31.2%; in the assay with Echinochloa oryzoides (Table 107), 34.6%. The pest or weed control at 60 g/ha in the assay on Echinochloa caudate (imazethapyr 60 g a.i./ha) was 55.6%; in assay [1] (B 60 g a.i./ha), 59.2%; in the assay with Echinochloa oryzoides (Table 107, 60 g a.i./ha) it was 58.2%.
For `COc1cc(OC)nc(NC(=O)NS(=O)(=O)c2ncccc2C(=O)N(C)C)n1` [nicosulfuron], the figures for the pest or weed control at 3.75 g/ha (with Echinochloa caudate (nicosulfuron 3.75 g a.i./ha); in assay [1]; with Echinochloa oryzoides (Table 104)) were 3.8%, 7.3% and 9.9%, respectively. Also, the pest or weed control at 7.5 g/ha came out at 14.3% with Echinochloa caudate (nicosulfuron 7.5 g a.i./ha), 15.4% in assay [1] and 18.2% with Echinochloa oryzoides (Table 104). Also, the values for the pest or weed control at 15 g/ha (with Echinochloa caudate (nicosulfuron 15 g a.i./ha); in assay [1]; in the assay on Echinochloa oryzoides (Table 104)) were 40.2%, 39.3% and 40.5%, respectively. The pest or weed control at 30 g/ha in the assay with Echinochloa caudate (nicosulfuron 30 g a.i./ha) amounted to 58.5%; in assay [1], 58.7%; in the assay with Echinochloa oryzoides (Table 104), 62.4%.
